According to ChEMBL document CHEMBL1141131, “A selective estrogen receptor modulator designed for the treatment of uterine leiomyoma with unique tissue specificity for uterus and ovaries in rats” (J Med Chem, 2005):

Tests used:
Estrogen receptor beta = Estrogen receptor beta (Rattus norvegicus, UniProt Q62986)
Description: Binding affinity for rat estrogen receptor beta

Estrogen receptor [1] = target: T1, Estrogen receptor (Homo sapiens, UniProt Q92731+P03372); settings: ishikawa
Description: Inhibitory concentration against estrogen-induced proliferation of Ishikawa uterine cells by 1 nM E2

Estrogen receptor [2] = target: T2, Estrogen receptor (Rattus norvegicus, UniProt P06211)
T2 sequence (P06211 whole entry): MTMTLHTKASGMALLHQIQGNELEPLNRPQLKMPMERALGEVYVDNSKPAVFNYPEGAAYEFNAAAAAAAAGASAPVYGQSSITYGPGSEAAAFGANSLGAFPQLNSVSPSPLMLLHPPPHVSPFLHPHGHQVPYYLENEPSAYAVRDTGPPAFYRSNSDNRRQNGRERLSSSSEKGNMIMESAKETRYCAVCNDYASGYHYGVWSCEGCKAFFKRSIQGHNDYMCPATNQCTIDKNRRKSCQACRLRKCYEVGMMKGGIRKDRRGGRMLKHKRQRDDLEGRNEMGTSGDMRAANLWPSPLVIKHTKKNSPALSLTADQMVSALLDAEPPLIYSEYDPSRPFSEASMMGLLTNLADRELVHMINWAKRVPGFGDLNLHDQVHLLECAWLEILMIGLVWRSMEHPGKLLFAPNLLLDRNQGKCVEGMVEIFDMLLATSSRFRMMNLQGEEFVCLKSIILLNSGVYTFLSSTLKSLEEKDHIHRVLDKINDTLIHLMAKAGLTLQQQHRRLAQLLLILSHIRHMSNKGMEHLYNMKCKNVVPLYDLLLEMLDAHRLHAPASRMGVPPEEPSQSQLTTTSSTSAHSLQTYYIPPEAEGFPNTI
Description: Binding affinity for rat estrogen receptor alpha

Estrogen receptor [3] = target: T1, Estrogen receptor; settings: mcf7
Description: Half maximal inhibitory concentration against estrogen-induced proliferation of MCF-7 breast cells by 10 pM E2

Sequence of Estrogen receptor beta (Q62986 whole entry): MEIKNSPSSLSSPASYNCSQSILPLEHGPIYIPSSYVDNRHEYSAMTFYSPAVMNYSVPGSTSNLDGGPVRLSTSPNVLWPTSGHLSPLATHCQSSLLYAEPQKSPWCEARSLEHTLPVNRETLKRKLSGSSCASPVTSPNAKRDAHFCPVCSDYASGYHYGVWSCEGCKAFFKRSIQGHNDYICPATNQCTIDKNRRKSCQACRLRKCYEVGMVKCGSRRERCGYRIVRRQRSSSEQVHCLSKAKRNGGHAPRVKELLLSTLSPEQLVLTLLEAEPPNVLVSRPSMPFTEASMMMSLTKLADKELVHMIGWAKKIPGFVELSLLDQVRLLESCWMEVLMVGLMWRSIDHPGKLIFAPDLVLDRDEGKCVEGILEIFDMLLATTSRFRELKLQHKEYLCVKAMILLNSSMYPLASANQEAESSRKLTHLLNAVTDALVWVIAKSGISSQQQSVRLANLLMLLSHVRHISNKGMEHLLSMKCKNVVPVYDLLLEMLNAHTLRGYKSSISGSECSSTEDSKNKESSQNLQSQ

Cl.Oc1ccc(-c2ccc3cc(O)ccc3c2Cc2ccc(OCCN3CCCCC3)cc2)cc1
Ki (Estrogen receptor beta): 0.7 nM
IC50 (Estrogen receptor [1]): 1.14 nM
Ki (Estrogen receptor [2]): 0.2 nM
IC50 (Estrogen receptor [3]): 0.2 nM

CS(=O)(=O)c1ccc(-c2ccc3cc(O)ccc3c2Cc2ccc(OCCN3CCCCC3)cc2)cc1.Cl
Ki (Estrogen receptor beta): 24.1 nM
IC50 (Estrogen receptor [1]): 4.78 nM
Ki (Estrogen receptor [2]): 1.15 nM
IC50 (Estrogen receptor [3]): 3.4 nM

Cl.Oc1ccc2c(Oc3ccc(OCCN4CCCCC4)cc3)c(-c3ccc(F)cc3)ccc2c1
Ki (Estrogen receptor beta): 0.3 nM
IC50 (Estrogen receptor [1]): 3.18 nM
Ki (Estrogen receptor [2]): 0.25 nM
IC50 (Estrogen receptor [3]): 0.34 nM
